Laboratory results: PMC2693121 (Molecular cell, 2009)

Key:
Cdk9 = Cdk9 (Schizosaccharomyces pombe, UniProt Q96WV9, T120G); assay: radiometric kinase assay with [γ-32P]-ATP on GST-Spt5; assay type: biochemical
Mcs6 = Mcs6 (Schizosaccharomyces pombe, UniProt Q12126, L87G); assay: radiometric kinase assay with [γ-32P]-ATP on GST-Rpb1-CTD; assay type: biochemical
Sequence of Mcs6 (P36613 whole entry): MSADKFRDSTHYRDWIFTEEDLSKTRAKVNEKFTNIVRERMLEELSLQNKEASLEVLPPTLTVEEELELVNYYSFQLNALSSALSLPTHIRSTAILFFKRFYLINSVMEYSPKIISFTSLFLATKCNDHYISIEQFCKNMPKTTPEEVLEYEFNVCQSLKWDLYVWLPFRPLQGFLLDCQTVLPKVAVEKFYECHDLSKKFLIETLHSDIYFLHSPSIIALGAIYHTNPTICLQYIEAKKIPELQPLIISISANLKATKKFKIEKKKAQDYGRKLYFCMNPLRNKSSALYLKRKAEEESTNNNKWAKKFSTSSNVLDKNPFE
Sequence of Mcs6 (Q12126 whole entry, stated change not applied): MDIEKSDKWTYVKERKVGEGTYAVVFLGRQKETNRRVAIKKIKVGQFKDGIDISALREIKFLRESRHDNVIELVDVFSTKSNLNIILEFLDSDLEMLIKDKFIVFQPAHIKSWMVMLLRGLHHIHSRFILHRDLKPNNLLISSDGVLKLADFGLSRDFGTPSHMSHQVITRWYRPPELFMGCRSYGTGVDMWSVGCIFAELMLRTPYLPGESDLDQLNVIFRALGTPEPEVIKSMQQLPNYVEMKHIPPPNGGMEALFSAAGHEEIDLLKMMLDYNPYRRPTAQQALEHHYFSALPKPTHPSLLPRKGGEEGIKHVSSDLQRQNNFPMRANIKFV
Sequence of Mcs6 (O94684 whole entry, further chain): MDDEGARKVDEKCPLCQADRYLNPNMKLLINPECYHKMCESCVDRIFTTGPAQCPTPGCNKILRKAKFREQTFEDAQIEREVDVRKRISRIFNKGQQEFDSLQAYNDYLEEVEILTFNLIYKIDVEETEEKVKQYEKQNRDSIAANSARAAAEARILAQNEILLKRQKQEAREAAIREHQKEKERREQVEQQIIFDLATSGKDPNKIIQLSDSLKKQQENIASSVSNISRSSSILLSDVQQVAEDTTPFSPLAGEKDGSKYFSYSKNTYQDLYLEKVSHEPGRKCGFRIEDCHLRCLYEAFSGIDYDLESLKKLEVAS

Sequence of Cdk9 (O74880 whole entry): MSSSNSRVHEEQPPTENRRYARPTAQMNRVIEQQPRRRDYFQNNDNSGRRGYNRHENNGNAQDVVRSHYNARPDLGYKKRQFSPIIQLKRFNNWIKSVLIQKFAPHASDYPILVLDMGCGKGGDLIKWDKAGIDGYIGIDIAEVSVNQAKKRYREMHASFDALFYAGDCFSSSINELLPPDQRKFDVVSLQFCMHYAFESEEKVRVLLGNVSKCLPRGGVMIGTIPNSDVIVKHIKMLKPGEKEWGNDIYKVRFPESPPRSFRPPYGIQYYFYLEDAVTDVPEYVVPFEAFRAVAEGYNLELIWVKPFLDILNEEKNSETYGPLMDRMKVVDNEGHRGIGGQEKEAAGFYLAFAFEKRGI
Sequence of Cdk9 (O74627 whole entry, further chain): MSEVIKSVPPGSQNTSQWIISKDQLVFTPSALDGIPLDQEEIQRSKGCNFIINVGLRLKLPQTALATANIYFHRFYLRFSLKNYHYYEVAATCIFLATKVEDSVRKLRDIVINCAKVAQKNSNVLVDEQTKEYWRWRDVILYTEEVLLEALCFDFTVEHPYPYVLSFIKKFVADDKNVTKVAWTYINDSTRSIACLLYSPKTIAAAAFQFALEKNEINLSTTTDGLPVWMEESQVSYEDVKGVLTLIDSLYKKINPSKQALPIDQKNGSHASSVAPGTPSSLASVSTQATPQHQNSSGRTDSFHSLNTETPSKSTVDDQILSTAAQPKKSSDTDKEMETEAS
Sequence of Cdk9 (Q96WV9 whole entry, stated change not applied): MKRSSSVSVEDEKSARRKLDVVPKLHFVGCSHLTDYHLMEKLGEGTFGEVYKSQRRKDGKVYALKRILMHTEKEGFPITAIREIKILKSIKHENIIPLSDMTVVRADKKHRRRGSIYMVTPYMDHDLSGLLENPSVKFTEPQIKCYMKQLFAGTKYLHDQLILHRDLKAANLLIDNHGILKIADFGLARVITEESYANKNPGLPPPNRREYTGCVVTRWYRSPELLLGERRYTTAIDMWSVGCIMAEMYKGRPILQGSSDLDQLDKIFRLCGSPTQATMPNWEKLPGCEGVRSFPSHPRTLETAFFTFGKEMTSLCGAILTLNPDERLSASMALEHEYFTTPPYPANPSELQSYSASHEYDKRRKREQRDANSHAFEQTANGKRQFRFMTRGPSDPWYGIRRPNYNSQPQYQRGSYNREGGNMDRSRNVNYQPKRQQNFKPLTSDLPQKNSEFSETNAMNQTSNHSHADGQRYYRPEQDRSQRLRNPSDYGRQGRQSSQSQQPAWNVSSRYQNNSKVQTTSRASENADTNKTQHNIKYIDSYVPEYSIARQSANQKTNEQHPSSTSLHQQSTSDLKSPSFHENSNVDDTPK

| SMILES | IC50 (Cdk9) [nM] | IC50 (Mcs6) [nM] |
| --- | --- | --- |
| CC(C)(C)n1nc(Cc2cccc3ccccc23)c2c(N)ncnc21 [1-NM-PP1] | ~500 | – |
| Cc1cccc(Cc2nn(C(C)(C)C)c3ncnc(N)c23)c1 [3-MB-PP1] | ~25 | ~125 |
